Assay results published in patent EP2960339A1, “Method and kit for the identification of glycosyl transferase substrates” (Technische Universität München, priority 2014, dated 2015).

Assays:
Format in all cases: biochemical
[1] = target: T1, VvGT14a (Vitis vinifera, UniProt F6H0R6); details: for Km: monoterpenols at constant UDP-glucose […], UDP-glucose at fixed geraniol 100 µM, Tris-HCl pH 8.5, 30 °C; for kcat: pH 8.5
[2] = target: T1, VvGT14a; assay: Substrate screening, radiochemical activity assay with UDP-[14C]glucose; details: for conversion of putative substrate (in words): substrate screening, Figure 3
Procedure: (§1) In the initial screening, each reaction mixture (200 µL in total) contained Tris-HCl buffer (100 mM, pH 8, 10 mM 2-mercaptoethanol), 37 pmol UDP-[^14C]glucose (0.01 µCi, Biotrend, Köln, Germany), substrate (50 µL of a 1 mg/mL stock solution) and purified protein (0.5-0.8 µg/µL). The reaction mixture was incubated at 30 °C for 18.5 hours. The assays were stopped by adding 1 µL 24% trichloroacetic acid and extracted with 500 µL water-saturated 1-butanol. The organic phase was mixed with 2 mL Pro Flow P+ cocktail (Meridian Biotechnologies Ltd., Epsom, UK) and radioactivity was determined by liquid scintillation counting (LSC, Tri-Carb 2800TR, Perkin Elmer, Waltham MA, USA). Additionally, negative controls without substrate were performed.
(§2) After determining the optimal conditions for the best substrate of each gene, the substrate screening was repeated under these conditions.
(§3) The alleles of VvGT14a-c, 15a-c and 16 were isolated from V. vinifera cultivars and cloned in the expression vector pGEX-4T-1. The recombinant proteins were expressed with an N-terminal GST-tag, affinity purified and verified by SDS-PAGE and Western Blot using GST-specific antibody. Enzyme activity studies were performed with UDP-[^14C]glucose and various putative substrates (terpenols, flavonoids and different mono-alcohols) that are known to be glycosidically bound and present in grapes (Gunata et al., 1988).

[3] = target: T2, VvGT15a (Vitis vinifera, UniProt F6GUW0); assay: as above; details: substrate screening, Figure 3
Procedure: as §1, §2, §3

[4] = target: VvGT15b (Vitis vinifera, UniProt F6GUW0); assay: as above; details: substrate screening, Figure 3
Procedure: as §1, §2, §3

[5] = target: VvGT15c (Vitis vinifera, UniProt F6GUW0); assay: as above
Procedure: as §1, §2, §3

[6] = target: VvGT16 (Vitis vinifera, UniProt F6HTJ4); assay: as above; details: substrate screening, Figure 3
Procedure: as §1, §2, §3

[7] = target: T1, VvGT14a; assay: Enantioselectivity by chiral phase SPME-GC-MS after hydrolysis of the formed glucoside; details: racemic substrate, prolonged incubation (24 h), aglycone liberated by hydrolysis
Procedure: (§4) To determine the enantioselectivity of VvGT14 and VvGT15 the enantiomeric ratio of glucosidically bound citronellol and linalool was determined by enantioselective GC-MS. Following the incubation, residual citronellol and linalool were completely removed by extraction with dichloromethane. Citronellyl ß-D-glucoside which remained in the aqueous phase was hydrolyzed by HCl (2 mL, 0.1 M, pH 1) for one hour at 100 °C to release citronellol (Skouroumounis and Sefton, 2000). In case of linalyl ß-D-glucoside an enzymatic hydrolysis (AR 2000, citric acid buffer pH 4, 24 h) was applied due to the instability of linalool in acid solutions (Williams et al., 1982). […] After hydrolysis, citronellol and linalool were analyzed by SPME-GC-MS as described above.
(§5) GC-MS analysis was performed with a Varian GC-450 coupled to a Varian MS-240 ion-trap employing a Phenomenex Zebron ZB-WAXplus column (30 m x 0.25 mm x 0.25 µm, Aschaffenburg, Germany). Helium flow rate was 1 mL/min. The analysis was carried out in split mode (liquid injections) or splitless mode (SPME measurements) with 220 °C injector temperature. EI (electron impact ionization)-MS spectra were recorded from m/z 40 to 300 (ionization energy 70 eV; trap temperature 170 °C). The oven temperature program was 60 °C (3 min), 10 °C/min up to 250 °C (5 min). In case of SPME measurements, liberated aglycones were isolated for 10 min at 60°C using a fiber coated with a 85 µm film of polyacrylate (SUPELCO, Bellefonte, USA). After extraction the SPME fiber was desorbed for 10 min at 250°C in the injection port of the GC-MS system and the column oven program was carried out as described above. Enantioselective GC-MS analysis was performed with a Varian GC-450 coupled to a Varian MS-240 ion-trap. The column was a DiAcß (heptakis-(2,3-di-O-acetyl-6-O-tert.-butyldimethylsilyl)-ß-cyclodextrin), 26 m x 0.32 mm i.d. with a 0.1 µm film. […] GC-MS measurements were recorded in full scan mode. Selected ion monitoring (SIM) mode was used for quantification.

[8] = target: T2, VvGT15a; assay: as above; details: racemic substrate, prolonged incubation (24 h), aglycone liberated by acid hydrolysis
Procedure: as §4, §5

[9] = target: T1, VvGT14a; assay: Activity based profiling using a physiologic aglycone library (radio-TLC, GC-MS); details: Figure 7
Procedure: For the preparation of aglycone extracts 50 g (fresh weight) grape skins or 4 g (fresh weight) inflorescences of Gewurztraminer Gm 11-18 were ground to a fine powder in liquid nitrogen. The isolation of glycosides was carried out as described above (see metabolite analysis). The methanolic fraction, which was obtained after SPE, was enzymatically hydrolysed. Therefore, the dried sample was dissolved in citric-acid buffer (0.1 M, pH 4), 50 mg AR 2000 (an enzyme preparation with glucosidase activity prepared from Aspergillus niger; DSM Food Specialties Beverage Ingredients, Delft, Netherlands) was added and incubated for 24 h with exclusion of light. The liberated aglycones were extracted by 20 mL methyl-tert-butyl ether and the organic phase was reduced to 1000µL using a gentle stream of nitrogen.
Aliquots of this aglycone extract were incubated with UDP-glucose and various VvGT-enzymes. Optimum conditions at 30 °C for 24 hours were applied. Each solution contained 100 µL purified enzyme, 100-150 µL Tris-HCl buffer (100 mM, pH7.5 or 8.5, 10 mM 2-mercaptoethanol), 37 pmol UDP-[^14C]glucose (0.01 µCi) and 50-100 µL extract (dissolved in methyl-tert-butylether). The buffer was mixed with the extract and the organic solvent was gently vaporized with nitrogen. The missing volume was adjusted with buffer before the enzyme was added. The reaction was stopped by adding 1 µL 24% trichloroacetic acid and extracted with 500 µL ethyl acetate. After termination of the reaction free aglycones, which were not converted by VvGT14 and VvGT15, were measured via SPME-(Solid Phase Microextraction)-GC-MS. These residual, free aglycones were completely removed by extraction with dichloromethane. Enzymatically formed glucosides were extracted by ethyl acetate, which was removed under nitrogen. The residue was dissolved in methanol and analyzed by LC-MS to detect the generated monoterpenol glucosides. Enzymatic hydrolysis of the glucosides was performed using AR 2000 and 2 mL citric-acid-buffer. After hydrolysis, a 100 µL aliquot was used to detect volatile aglycones via SPME-GC-MS. The remaining solution was extracted with methyl-tert-butyl ether and reduced under nitrogen to approximately 200 µL. One µL were measured by GC-MS via liquid injection.
Assays containing UDP-[^14C]glucose and aglycone libraries or substrates were performed as described above and subsequently extracted with 500 µL ethyl acetate. The organic solvent was vaporized and the pellet was re-suspended in 10 µL methanol and was applied on Silica Gel 60 F254 plates (Merck, Darmstadt, Germany). The dried plates were developed in a solvent system chloroform:acetic acid:water (50/45/5, v:v:v). Plates were dried and analyzed by digital autoradiograph (digital autoradiograph, EG&G Berthold, Wildbad, Germany).
An aglycone library of the two tissues was obtained by enzymatic hydrolysis of the glycosides followed by liquid-liquid extraction of the released alcohols and acids. […] The formed glycosides were separated by thin layer chromatography (TLC) and visualized by radiodetection whereas identification could be achieved by LC-MS and NMR analysis and, after hydrolysis, by GC-MS and LC-MS (Figure 6).

[10] = citronellol enantiomers, Figure 12, highest level of extractable radioactivity = 100 %

T1 sequence (F6H0R6 entry or part of it): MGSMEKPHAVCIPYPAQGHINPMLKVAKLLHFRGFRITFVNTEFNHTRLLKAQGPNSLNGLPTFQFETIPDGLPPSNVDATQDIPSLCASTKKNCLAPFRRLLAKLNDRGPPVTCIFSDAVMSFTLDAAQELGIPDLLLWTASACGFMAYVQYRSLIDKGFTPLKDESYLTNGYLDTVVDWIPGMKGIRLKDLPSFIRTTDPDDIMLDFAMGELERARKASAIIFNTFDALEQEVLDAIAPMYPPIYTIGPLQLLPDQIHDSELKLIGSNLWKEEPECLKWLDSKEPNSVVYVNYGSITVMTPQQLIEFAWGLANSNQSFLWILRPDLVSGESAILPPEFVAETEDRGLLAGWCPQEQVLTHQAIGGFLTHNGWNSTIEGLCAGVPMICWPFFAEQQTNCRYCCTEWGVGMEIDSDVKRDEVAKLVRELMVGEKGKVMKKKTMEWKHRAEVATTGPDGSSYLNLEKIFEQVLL
T2 sequence (F6GUW0 entry or part of it): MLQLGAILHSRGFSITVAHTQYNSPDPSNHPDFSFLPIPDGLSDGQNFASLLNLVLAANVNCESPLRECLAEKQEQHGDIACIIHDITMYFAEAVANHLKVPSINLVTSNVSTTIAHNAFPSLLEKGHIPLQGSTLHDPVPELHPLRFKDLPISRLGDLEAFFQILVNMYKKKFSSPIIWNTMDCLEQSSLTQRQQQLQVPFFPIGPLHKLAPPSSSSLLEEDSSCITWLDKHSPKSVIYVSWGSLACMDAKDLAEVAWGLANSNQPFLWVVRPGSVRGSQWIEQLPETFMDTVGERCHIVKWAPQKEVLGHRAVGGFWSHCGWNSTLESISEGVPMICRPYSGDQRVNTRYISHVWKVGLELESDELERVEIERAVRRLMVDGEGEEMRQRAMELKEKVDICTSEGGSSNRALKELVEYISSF
Sequence of VvGT15c (F6GUW0 entry or part of it): as above
Sequence of VvGT15b (F6GUW0 entry or part of it): as above
Sequence of VvGT16 (F6HTJ4 entry or part of it): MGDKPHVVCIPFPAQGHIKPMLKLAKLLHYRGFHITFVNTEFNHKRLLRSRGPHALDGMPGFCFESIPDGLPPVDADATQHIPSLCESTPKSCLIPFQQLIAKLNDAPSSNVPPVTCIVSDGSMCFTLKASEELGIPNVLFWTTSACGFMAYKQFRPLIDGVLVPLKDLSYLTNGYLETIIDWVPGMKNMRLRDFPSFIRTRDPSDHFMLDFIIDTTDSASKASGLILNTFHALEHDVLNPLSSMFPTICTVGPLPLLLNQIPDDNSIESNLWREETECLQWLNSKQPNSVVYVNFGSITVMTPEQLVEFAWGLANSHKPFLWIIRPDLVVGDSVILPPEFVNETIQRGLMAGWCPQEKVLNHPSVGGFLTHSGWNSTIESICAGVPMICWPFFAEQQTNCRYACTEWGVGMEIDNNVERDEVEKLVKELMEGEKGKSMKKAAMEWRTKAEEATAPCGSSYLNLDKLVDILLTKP

Compound | Km [1] | kcat [1] | relative specific activity [2, 10] | conversion of putative substrate (in words) [2] | conversion of putative substrate (in words) [3] | conversion of putative substrate (in words) [4] | relative specific activity [5, 10] | conversion of putative substrate (in words) ([5]; substrate screening, Figure 3) | conversion of putative substrate (in words) [6] | enantiomeric preference (in words) [7] | enantiomeric preference (in words) [8] | aglycone liberated by enzymatic hydrolysis of the glucosides formed from the grape skin aglycone library (in words) [9]
CC(C)=CCCC(C)CCO (racemic) [citronellol (rac), (R,S)-3,7-dimethyl-6-octen-1-ol] | 9 ± 0.3 µM | 0.02 s⁻¹ | 100% | preferred | glucosylated primarily | glucosylated primarily | 100% | glucosylated primarily | transformed | no enantio-discrimination | no enantio-discrimination | remarkable quantities
C=CC(C)(O)CCC=C(C)C (racemic) [linalool (rac), (R,S)-3,7-dimethyl-1,6-octadien-3-ol] | 47 ± 0.1 µM | 0.0003 s⁻¹ | – | catalytic activity | – | – | – | – | – | slight enrichment of the R-enantiomer | – | remarkable quantities
